Results on four compounds are retold here after ChEMBL document CHEMBL5715939, “Aurora kinase inhibitors: a new class of targeted drugs in cancer” (Clin Lung Cancer, 2006).

Data set [1] deals with Aurora kinase B (Homo sapiens, UniProt Q96GD4). Kind of data set: Inhibition of human aurora B.
Data set [2] deals with T1, Receptor-type tyrosine-protein kinase FLT3 (Homo sapiens, UniProt P36888).
T1 sequence (P36888 whole entry): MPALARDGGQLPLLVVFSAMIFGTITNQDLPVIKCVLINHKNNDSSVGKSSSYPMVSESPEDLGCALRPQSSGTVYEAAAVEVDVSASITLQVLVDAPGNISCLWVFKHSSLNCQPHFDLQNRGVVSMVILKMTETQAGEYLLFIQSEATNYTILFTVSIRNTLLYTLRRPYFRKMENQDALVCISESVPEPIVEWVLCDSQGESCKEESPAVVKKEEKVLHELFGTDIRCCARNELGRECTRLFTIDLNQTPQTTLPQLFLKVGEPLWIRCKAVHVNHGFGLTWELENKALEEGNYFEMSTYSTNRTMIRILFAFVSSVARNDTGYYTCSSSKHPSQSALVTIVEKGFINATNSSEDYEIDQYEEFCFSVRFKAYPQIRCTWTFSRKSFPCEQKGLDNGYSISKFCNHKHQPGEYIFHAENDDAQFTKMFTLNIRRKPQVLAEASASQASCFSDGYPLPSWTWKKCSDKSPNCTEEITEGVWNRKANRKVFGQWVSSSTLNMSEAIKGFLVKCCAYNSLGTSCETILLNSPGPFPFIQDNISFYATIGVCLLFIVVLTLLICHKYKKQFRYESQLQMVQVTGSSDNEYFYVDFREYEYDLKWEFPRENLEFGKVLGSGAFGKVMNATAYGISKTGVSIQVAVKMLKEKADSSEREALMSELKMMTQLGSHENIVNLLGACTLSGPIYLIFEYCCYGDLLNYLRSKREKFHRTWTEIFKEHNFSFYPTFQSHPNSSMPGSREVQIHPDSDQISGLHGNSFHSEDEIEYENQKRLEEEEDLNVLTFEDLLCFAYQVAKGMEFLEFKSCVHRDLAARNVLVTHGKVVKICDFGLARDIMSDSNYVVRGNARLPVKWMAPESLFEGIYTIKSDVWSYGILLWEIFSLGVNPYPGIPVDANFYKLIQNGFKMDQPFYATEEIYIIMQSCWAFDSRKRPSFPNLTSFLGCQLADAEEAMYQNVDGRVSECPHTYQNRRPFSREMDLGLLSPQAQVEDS
Nature of the data set: Inhibition of human FLT3.

Data set [3] has as its target T2, Aurora kinase C (Homo sapiens, UniProt Q9UQB9).
T2 sequence (Q9UQB9 whole entry): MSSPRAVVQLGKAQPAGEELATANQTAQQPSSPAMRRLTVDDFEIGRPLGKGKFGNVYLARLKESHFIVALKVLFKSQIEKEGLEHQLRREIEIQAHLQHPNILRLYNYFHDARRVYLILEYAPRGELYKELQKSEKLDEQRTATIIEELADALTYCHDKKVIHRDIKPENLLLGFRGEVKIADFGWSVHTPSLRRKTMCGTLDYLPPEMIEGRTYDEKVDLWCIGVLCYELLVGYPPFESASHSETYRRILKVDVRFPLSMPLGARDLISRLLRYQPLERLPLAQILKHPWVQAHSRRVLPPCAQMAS
Kind of data set: Inhibition of human aurora C.

The nature of data set [4]: Cmax in plasma of human patient with advanced solid tumors at 0.5 to 12 mg/m2/hr, iv administered by continuous intravenous infusion over 5 days every 4 weeks. It is filed as ADME, organism-based. Particulars: dose 0.5-12 mg/m2/hr, time 5 day.
Data set [5] can be described thus: Half life in human patient with advanced solid tumors at 0.5 to 12 mg/m2/hr, iv administered by continuous intravenous infusion over 5 days every 4 weeks. The data set is classed as ADME, organism-based. To be noted: in vivo, dose 0.5-12 mg/m2/hr, time 5 day.

Molecules are shown by their SMILES. Where only a bound is given, the exact number is not on record here.

Aurora kinase B, sequence (Q96GD4 whole entry): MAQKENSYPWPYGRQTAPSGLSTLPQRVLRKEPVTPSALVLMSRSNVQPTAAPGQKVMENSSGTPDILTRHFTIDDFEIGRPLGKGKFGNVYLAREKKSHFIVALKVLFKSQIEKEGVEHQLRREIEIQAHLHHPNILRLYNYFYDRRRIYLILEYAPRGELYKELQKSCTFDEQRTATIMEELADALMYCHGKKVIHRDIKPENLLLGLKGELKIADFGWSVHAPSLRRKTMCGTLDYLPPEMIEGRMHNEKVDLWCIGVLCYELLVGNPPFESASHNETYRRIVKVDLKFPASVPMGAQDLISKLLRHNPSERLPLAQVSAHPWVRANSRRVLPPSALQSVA

For `CCc1cccc(CC)c1NC(=O)N1Cc2n[nH]c(NC(=O)c3ccc(N4CCN(C)CC4)cc3)c2C1` [PHA-680632], the 50% inhibitory concentration (IC50) stood at 0.035 µM in data set [1] and 0.39 µM in data set [2].

For the compound `O=C(Nc1c[nH]nc1-c1nc2cc(CN3CCOCC3)ccc2[nH]1)NC1CC1` [AT-9283], the IC50 in data set [1] was < 0.003 µM.

In data set [3], `CCN(CCCOc1ccc2c(Nc3cc(CC(=O)Nc4cccc(F)c4)n[nH]3)ncnc2c1)CCOP(=O)(O)O` [BARASERTIB] showed a Ki of 0.017 µM.

`Cc1cc(Nc2cc(N3CCN(C)CC3)nc(Sc3ccc(NC(=O)C4CC4)cc3)n2)[nH]n1` [TOZASERTIB]: the Cmax in data set [4] was 0.65 µM. Also, in data set [5], the half-life was 15 h.

By IC50 is commonly meant the concentration at which inhibition is half-maximal. A low value points to greater potency. As a reminder, the Ki is a measure of affinity in units of concentration, obtained from inhibition or displacement. A high value points to weaker binding. For orientation: Cmax means the peak of the concentration-time curve. For orientation: half-life means the time in which the quantity being followed falls by half. A higher half-life goes with slow decline.
